According to ChEMBL document CHEMBL1154793, “The lecanindoles, nonsteroidal progestins from the terrestrial fungus Verticillium lecanii 6144” (J Nat Prod, 2009):

Key:
Estrogen receptor [1] = biological target: T1, Estrogen receptor (Homo sapiens, UniProt P03372); experiment: Antagonist activity at estrogen receptor alpha ligand binding domain expressed in african green monkey COS7 cells co-transfected with Gal4-LBD up to 10 uM by luciferase reporter gene assay; type: cell-based; conditions: cos-7
T1 sequence (P03372 whole entry): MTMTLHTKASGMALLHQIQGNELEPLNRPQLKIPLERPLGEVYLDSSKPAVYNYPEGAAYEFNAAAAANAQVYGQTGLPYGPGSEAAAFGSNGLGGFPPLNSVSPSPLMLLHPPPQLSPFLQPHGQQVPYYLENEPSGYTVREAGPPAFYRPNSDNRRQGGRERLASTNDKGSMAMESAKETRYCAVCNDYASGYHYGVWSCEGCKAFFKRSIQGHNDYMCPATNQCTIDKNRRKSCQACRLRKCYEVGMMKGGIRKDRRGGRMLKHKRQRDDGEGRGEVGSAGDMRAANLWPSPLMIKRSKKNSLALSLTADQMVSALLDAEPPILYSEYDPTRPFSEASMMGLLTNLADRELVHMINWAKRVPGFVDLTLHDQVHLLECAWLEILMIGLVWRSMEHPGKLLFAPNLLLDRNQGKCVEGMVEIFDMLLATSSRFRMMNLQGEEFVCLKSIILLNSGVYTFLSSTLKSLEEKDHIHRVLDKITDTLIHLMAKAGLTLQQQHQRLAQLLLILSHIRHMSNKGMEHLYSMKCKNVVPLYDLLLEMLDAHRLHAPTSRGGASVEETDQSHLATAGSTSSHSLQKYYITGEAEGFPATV

Progesterone receptor [2] = biological target: T2, Progesterone receptor (Homo sapiens, UniProt P06401); experiment: Activation of progesterone receptor in human T47D cells up to 1000 nM after 20 hrs by PRE-tagged luciferase reporter gene assay; type: cell-based
T2 sequence (P06401 whole entry): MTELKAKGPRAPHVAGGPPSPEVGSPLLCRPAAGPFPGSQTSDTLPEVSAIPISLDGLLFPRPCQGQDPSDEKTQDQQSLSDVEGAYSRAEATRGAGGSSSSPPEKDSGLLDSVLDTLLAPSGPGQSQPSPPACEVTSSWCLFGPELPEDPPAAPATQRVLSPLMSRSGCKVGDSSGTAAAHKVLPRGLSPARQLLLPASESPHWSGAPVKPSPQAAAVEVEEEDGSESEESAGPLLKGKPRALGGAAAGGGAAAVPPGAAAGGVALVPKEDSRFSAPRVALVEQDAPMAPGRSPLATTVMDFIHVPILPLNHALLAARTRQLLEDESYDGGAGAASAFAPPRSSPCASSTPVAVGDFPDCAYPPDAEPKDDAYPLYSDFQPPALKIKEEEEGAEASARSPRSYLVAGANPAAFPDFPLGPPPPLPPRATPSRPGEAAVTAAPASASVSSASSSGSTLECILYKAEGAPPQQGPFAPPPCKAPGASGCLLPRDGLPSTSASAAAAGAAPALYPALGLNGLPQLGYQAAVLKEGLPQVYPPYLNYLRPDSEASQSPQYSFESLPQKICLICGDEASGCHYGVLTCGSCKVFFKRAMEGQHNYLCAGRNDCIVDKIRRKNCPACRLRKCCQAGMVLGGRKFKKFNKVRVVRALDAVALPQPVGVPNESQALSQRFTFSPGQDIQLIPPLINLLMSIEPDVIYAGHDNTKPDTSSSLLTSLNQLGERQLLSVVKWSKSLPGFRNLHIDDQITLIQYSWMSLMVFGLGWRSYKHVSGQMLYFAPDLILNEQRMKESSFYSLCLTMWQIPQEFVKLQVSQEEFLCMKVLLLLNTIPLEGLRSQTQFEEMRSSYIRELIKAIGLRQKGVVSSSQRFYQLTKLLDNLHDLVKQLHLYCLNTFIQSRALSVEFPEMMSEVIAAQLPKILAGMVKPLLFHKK

Glucocorticoid receptor [3] = biological target: T3, Glucocorticoid receptor (Homo sapiens, UniProt P04150); experiment: Antagonist activity at glucocorticoid receptor ligand binding domain expressed in african green monkey COS7 cells co-transfected with Gal4-LBD up to 10 uM by luciferase reporter gene assay; type: cell-based; conditions: cos-7
T3 sequence (P04150 whole entry): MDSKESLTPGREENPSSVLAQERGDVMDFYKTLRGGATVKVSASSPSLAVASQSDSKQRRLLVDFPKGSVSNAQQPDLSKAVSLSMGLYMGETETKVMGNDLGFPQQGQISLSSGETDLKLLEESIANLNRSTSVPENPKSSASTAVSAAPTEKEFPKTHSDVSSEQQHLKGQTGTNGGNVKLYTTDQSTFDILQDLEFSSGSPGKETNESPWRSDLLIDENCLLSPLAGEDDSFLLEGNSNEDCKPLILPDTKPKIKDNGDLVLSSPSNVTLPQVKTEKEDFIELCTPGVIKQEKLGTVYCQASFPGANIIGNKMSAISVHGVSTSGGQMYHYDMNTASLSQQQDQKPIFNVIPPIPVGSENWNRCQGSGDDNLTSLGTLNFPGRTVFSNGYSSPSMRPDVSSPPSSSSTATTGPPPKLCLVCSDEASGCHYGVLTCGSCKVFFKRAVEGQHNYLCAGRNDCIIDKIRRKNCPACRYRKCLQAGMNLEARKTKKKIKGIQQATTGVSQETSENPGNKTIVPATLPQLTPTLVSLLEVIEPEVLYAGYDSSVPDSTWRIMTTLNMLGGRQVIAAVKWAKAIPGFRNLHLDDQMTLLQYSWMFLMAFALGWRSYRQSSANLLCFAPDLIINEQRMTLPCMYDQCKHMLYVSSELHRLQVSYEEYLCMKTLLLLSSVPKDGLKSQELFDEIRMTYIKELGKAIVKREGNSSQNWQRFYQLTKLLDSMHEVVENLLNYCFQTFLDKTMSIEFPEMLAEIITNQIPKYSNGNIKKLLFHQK

Progesterone receptor [4] = biological target: T2, Progesterone receptor; experiment: Displacement of [3H]progesterone from progesterone receptor in human T47D cells after 3 hrs by scintillation counting; type: cell-based
Progesterone receptor [5] = biological target: T2, Progesterone receptor; experiment: Displacement of progesterone from progesterone receptor in human T47D cells after 3 hrs; type: cell-based
[6] = biological target: T4, Progesterone receptor (Homo sapiens) (UniProt P06401); experiment: Ratio of compound IC50 to progesterone IC50 for progesterone receptor in human T47D cells; type: cell-based
T4 sequence (whole entry): T2 sequence (P06401 whole entry)

[7] = biological target: T5, Estrogen receptor (Homo sapiens) (UniProt P03372); experiment: Antagonist activity at estrogen receptor alpha ligand binding domain expressed in african green monkey COS7 cells co-transfected with Gal4-LBD by luciferase reporter gene assay relative to control; type: cell-based; set-up: scale not given: the % may be the effect or the level left; conditions: COS-7
T5 sequence (whole entry): T1 sequence (P03372 whole entry)

Glucocorticoid receptor [8] = biological target: T3, Glucocorticoid receptor
[9] = biological target: T6, Glucocorticoid receptor (Homo sapiens) (UniProt P04150); experiment: Antagonist activity at glucocorticoid receptor ligand binding domain expressed in african green monkey COS7 cells co-transfected with Gal4-LBD by luciferase reporter gene assay relative to control; type: cell-based; set-up: scale not given: the % may be the effect or the level left; conditions: COS-7
T6 sequence (whole entry): T3 sequence (P04150 whole entry)

[10] = biological target: T4, Progesterone receptor (Homo sapiens); experiment: Ratio of compound EC50 to progesterone EC50 for progesterone receptor in human T47D cells; type: cell-based
Estrogen receptor [11] = biological target: T1, Estrogen receptor

Structure (SMILES): CC1(C)C(=O)CC[C@]2(C)[C@@]3(C)c4[nH]c5ccccc5c4C[C@@H]3CC[C@@]12O [LECANINDOLE B]
- IC50 (Estrogen receptor [1]): Not Active
- EC50 (Progesterone receptor [2]): Not Active
- IC50 (Glucocorticoid receptor [3]): Not Active

Structure (SMILES): CC1(C)[C@H](O)CC[C@]2(C)[C@@]3(C)c4[nH]c5ccccc5c4C[C@@H]3CC[C@@]12O [LECANINDOLE D]
- IC50 (Progesterone receptor [4]): 57.3 nM
- IC50 (Progesterone receptor [5]): 5.5 nM
- Ratio IC50 [6]: 10
- Activity [7]: 19%
- IC50 (Glucocorticoid receptor [8]): > 1000 nM
- Activity [9]: 58%
- Ratio EC50 [10]: 10
- IC50 (Estrogen receptor [11]): > 10000 nM
